# Laboratory results published in article PMC8228365, “Degradation Products of Tryptophan in Cell Culture Media: Contribution to Color and Toxicity” (International Journal of Molecular Sciences, 2021).
# Like-named read-outs stand apart in the source and are kept apart here.
# How the values were obtained:
# [1] = test system: CHOK1 GS cells; assay: CellTiter-Glo cytotoxicity assay in CHOK1 GS cell line; type: cell-based, Chinese hamster; conditions: Cricetulus griseus
# Description: To assay the potential toxicity induced in the CHO cell culture by the Trp degradation products found in this study, a cytotoxicity assay CellTiter-Glo® Luminescent Cell Viability Assay (Cat #G7572, Promega, Madison, WI, USA) was used, following the manufacturer’s instructions. Briefly, the cells were seeded with 25,000 viable cells per cavity of a 96-well opaque white cell culture plate (Thermo Fisher, Waltham, MA, USA) in 80 µL of a pre-warmed medium. […] A DMSO control was added in the same concentration range as the tryptophan degradation compounds were diluted.
# [2] = test system: CHOZN 6 cells; assay: CellTiter-Glo cytotoxicity assay in CHOZN 6 cell line; type: cell-based, Chinese hamster; conditions: Cricetulus griseus, read-out: [GI50] CHOZN 6
# Description: (§1) To assay the potential toxicity induced in the CHO cell culture by the Trp degradation products found in this study, a cytotoxicity assay CellTiter-Glo® Luminescent Cell Viability Assay (Cat #G7572, Promega, Madison, WI, USA) was used, following the manufacturer’s instructions. Briefly, the cells were seeded with 25,000 viable cells per cavity of a 96-well opaque white cell culture plate (Thermo Fisher, Waltham, MA, USA) in 80 µL of a pre-warmed medium. Tryptophan degradation compounds were added in triplicates to the cells, ranging from 1 mM to 46 nM. A DMSO control was added in the same concentration range as the tryptophan degradation compounds were diluted. The dose response curves were fitted with a 4PL model by GraphPad Prism v.7 (GraphPad Software, San Diego, CA, USA) after luminescence readout with an EnVision 2104 Multilabel Reader (Perkin Elmer, Waltham, MA, USA).
# [3] = test system: bacteria; set-up: method as in PMID 24930832; conditions: cited from earlier work
# [4] = test system: human cancer cell lines; set-up: method as in PMID 24930832; conditions: cited from earlier work
# [5] = Color measurement (ΔE*) of standards spiked into water; type: physicochemical; conditions: theoretical 500 µM, 1% DMSO, ΔE* > 1 deemed significant
# Description: (§2) Compounds were dissolved in DMSO at 50 mM and then spiked into the solutions to achieve a final compound concentration of 500µM. Some of the tested compounds formed a precipitate immediately upon spiking of the DMSO solution. As the precipitates in solution can interfere with the absorption measurement, each sample was centrifuged prior to taking absorption measurements, meaning that the final concentrations were not all at 500 µM. […] In stability experiments, eight of these nine compounds (all except 46) were present in at least one condition in the degraded water samples, and four of these nine compounds (28, 31, 38, and 46) were present in the degraded feed.
# (§3) Absorbance measurements were taken in the range of 380 nm to 780 nm (20 nm steps) of 100 µL of the samples in four technical replicates (Envision, Perkin Elmer, Waltham, MA, USA). From the absorbance values, the change in color was calculated using L*a*b* and ΔE* values according to DIN 5033-3 and DIN 6174 norms. The CIE 1931 standard observer (2°) and the D65 illuminant were selected.
# (§4) Chemical standards were prepared as 50 mM stocks in DMSO and then spiked into the aqueous solutions (either water or feed) to achieve a theoretical compound concentration of 500 µM (1% DMSO). The solutions were centrifuged, and the absorbance measurements of these solutions was measured and converted to ΔE* values as described above. The control condition was pure DMSO (1% v/v).
# [6] = test system: CHO cells; assay: CHO cell toxicity summarised across the four CHO cell lines; type: cell-based, Chinese hamster; conditions: Cricetulus griseus, read-out: GI50 across all cell lines
# Description: as §1
# [7] = test system: CHOK1 cells; assay: CellTiter-Glo cytotoxicity assay in CHOK1 cell line; type: cell-based, Chinese hamster; conditions: Cricetulus griseus
# Description: as §1
# [8] = Color measurement (ΔE*) of standards spiked into feed; type: physicochemical; conditions: theoretical 500 µM, 1% DMSO, ΔE* > 1 deemed significant
# Description: as §2, §3, §4
# [9] = test system: CHOZN 10 cells; assay: CellTiter-Glo cytotoxicity assay in CHOZN 10 cell line; type: cell-based, Chinese hamster; conditions: Cricetulus griseus, read-out: [GI50] CHOZN 10
# Description: as §1
# [10] = test system: cancerous and non-cancerous human cell lines; set-up: method as in PMID 28720329, PMID 22819942, PMID 32792961; conditions: wide range of human cell lines; cited from earlier work
Compound,"GI50 ([1]; CHO-K1, CHOK1 GS cell line, 1 mM to 46 nM, 4PL fit, read-out: [GI50] CHOK1 GS)","GI50 ([2]; CHOZN 6 cell line, 1 mM to 46 nM, 4PL fit)",antibacterial activity [3],toxicity in human cancer cell lines [4],Color change as measured by ΔE* in water [5],GI50 ([6]; across all four CHO cell lines),"GI50 ([7]; CHO-K1, CHOK1 cell line, 1 mM to 46 nM, 4PL fit, read-out: [GI50] CHOK1)",Color change as measured by ΔE* in feed [8],"GI50 ([9]; CHOZN 10 cell line, 1 mM to 46 nM, 4PL fit)","GI50 ([1]; CHO-K1, read-out: [GI50] CHOK1 GS)",GI50 [2],GI50 ([6]; CHO),toxicity against cancerous and non-cancerous human cell lines [10],"GI50 ([7]; CHO-K1, read-out: [GI50] CHOK1)",GI50 [9]
"c1ccc2c(-c3nccc4c3[nH]c3ccccc34)c[nH]c2c1 [Compound 34, 1-(1H-Indol-3-yl)-9H-pyrido[3,4-b]indole]",24 µM,12.3 µM,most potent as an antibacterial agent,some toxicity,significant color change,10 to 22 µM,10.6 µM,significant color change,13.1 µM,,,,,,
"O=C1c2ccccc2-n2c1nc1ccccc1c2=O [Compound 39, Tryptanthrin]",,,,,significant color change,,,significant color change,,< 0.13 µM,1.1 µM,≤ 1.1 µM,low micromolar toxicity,0.2 µM,1.05 µM
